Experimental data: patent US20240366471A1, “MULTIDOSE ANTIBODY DRUG PRODUCTS USING PHENOL OR BENZYL ALCOHOL” (Regeneron Pharmaceuticals, Inc., priority 2023, published 2024)

Tests used:
[1] = Purity by SE-UPLC (% HMW, % Main, % LMW) on storage; format: physicochemical; details: stress conditions (40° C. and 45° C.)
Procedure: To determine the effect of preservatives on high molecular weight (HMW) complex formation for different mAbs formulations, various antibodies were incubated at 40° C. over the course of 3 months with or without tested preservatives.
To determine the effect of preservatives on high molecular weight (HMW) complex formation for different mAbs formulations, various antibodies were incubated at 25° C. over the course of 6 months with or without tested preservatives.

[2] = Compatibility of preservatives with mAb formulations; format: physicochemical; details: preservative in mAb formulations, incompatibility seen as turbidity
[3] = Overall storage stability of mAb formulations with preservatives; details: all storage conditions
Procedure: Storage stability of the Fc-containing proteins were assessed at various temperatures, as will be described in further detail, including at 5° C., 25° C., 40° C., and 45° C., to enable kinetic degradation profiling, if applicable.
The sample formulations with preservatives were compared to the control formulations without preservatives to evaluate the effect of preservatives on protein stability.

OCc1ccccc1 [benzyl alcohol]
mAb aggregation detected by SE-UPLC (in words) [1]: higher mAb aggregation

Cc1cccc(O)c1 [m-cresol]
compatibility with the mAb formulations [2]: not compatible | compatibility with the mAb formulations ([2]; listed as cresol): incompatible

Oc1ccccc1 [phenol]
destabilizing effect of preservative on mAbs (in words) [3]: least destabilization effect | destabilizing effect of preservative on mAbs (in words) ([3]; listed as Phenol): only minimal destabilizing effect
